As a reminder, the IC50 is the midpoint of a concentration-inhibition curve.

The source made the active and inactive calls.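 The calls were made as follows: active = in confirmatory dose-response testing, peak deubiquitinase inhibition of 30% or more; inactive = the rest.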 Positions of bridges follow the written chain, without caps; N, C: chain ends. Residues, ends and D or L forms follow the SMILES beside them. ξ: configuration not given here. *: point of attachment. Pentadecanoyl(3ξ-OH,15-Gua) = N=C(N)NCCCCCCCCCCCCC(O)CC(=O)* Some results are limits rather than exact numbers.

The target of this assay is Ubiquitin carboxyl-terminal hydrolase 28 (Homo sapiens) (UniProt Q96RU2). The assay can be described thus: Concentration-response biochemical assay confirming initial hits as inhibitors of ubiquitin-specific protease 28 (AID 1645866). As to conditions: purified USP28, ubiquitin-rhodamine fluorescence, 30 min.
Sequence of Ubiquitin carboxyl-terminal hydrolase 28 (Homo sapiens) (Q96RU2 whole entry, looked up): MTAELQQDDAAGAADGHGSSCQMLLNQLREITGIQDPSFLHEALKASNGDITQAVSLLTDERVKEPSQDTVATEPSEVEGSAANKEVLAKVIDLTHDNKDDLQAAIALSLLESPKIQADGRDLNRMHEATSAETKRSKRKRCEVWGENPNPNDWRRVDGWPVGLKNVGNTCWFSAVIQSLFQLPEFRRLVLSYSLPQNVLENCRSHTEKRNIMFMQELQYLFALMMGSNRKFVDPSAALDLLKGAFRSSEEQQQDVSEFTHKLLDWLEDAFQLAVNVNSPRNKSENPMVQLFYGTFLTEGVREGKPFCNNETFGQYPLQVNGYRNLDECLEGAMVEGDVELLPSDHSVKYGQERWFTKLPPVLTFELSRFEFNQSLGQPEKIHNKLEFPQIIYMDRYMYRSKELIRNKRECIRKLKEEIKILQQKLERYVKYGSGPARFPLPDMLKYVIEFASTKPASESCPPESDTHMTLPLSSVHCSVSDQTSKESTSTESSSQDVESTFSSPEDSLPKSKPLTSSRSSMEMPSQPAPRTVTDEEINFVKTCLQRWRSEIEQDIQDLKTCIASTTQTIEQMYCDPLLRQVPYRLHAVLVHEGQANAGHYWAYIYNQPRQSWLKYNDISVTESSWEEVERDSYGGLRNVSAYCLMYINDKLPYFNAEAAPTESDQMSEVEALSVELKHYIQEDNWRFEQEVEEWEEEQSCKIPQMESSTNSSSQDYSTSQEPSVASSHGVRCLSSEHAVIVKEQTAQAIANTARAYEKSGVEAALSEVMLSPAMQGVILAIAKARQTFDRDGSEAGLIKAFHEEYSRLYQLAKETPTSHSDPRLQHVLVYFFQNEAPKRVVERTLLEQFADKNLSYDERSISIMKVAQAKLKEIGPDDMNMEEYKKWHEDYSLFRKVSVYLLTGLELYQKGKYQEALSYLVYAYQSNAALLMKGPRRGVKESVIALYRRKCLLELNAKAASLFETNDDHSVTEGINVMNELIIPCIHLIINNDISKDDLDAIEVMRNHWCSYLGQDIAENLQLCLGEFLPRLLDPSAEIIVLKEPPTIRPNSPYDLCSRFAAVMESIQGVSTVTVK

As for `O=C(Nc1cccc(-c2noc(C3CCC3)n2)c1)C1CC(=O)N(c2ccccc2)C1` (stereo not given), the IC50 is 18.8 µM.

As for `Cc1nc(C(=O)Nc2cccc(Cl)c2Cl)nn1-c1cc(Cl)cc(Cl)c1`, the IC50 is 0.163 µM.

Regarding `Cc1ccc2c(=O)c(C(=O)Nc3ccccc3)cn(CC(=O)NC3CCCCC3)c2n1`, the IC50 is > 50 µM (inactive).

On to `O=C1C=C(O)c2c(O)cccc2C1=O`, for which the IC50 is 15.7 µM.

With `CCC(=O)Nc1ccccc1-c1nc2ccccc2n(CC(=O)Nc2cc(OC)ccc2OC)c1=O`, the IC50 is 14 µM.

For `CC12c3ccc4c(c3C(=O)c3occ(c31)C(=O)CC2O)CCC4=O` (stereo not given), the IC50 was > 50 µM (inactive).

`O=C(NCC1CC1)C1CCCN(c2ccc(-c3ccccc3)nn2)C1` (stereo not given): the IC50 is > 50 µM (inactive).

In the case of `O=C(Cn1c(=O)n(Cc2ccc(F)cc2)c(=O)c2sccc21)Nc1cccc(Cl)c1`, the IC50 was 11.4 µM.

Turning to `CC1NC(=O)C(CC(N)=O)NC(=O)C(C(C)O)NC(=O)C(Cc2ccc(O)cc2)NC(=O)C(C(C)C)NC(=O)C(NC(=O)CC(O)CCCCCCCCCCCCN=C(N)N)C(C)OC1=O` (stereo not given) ({Pentadecanoyl(3ξ-OH,15-Gua)}-TVYTNA; ester 1-C; configuration not given here), the IC50 is 3.63 µM.

For `COc1cc2c(cc1OC)C(COc1ccccc1OC)N(C(=O)c1ccc3ccccc3c1)CC2` (stereo not given), the IC50 was > 50 µM (inactive).

Consider `Cc1ccc(CNC(=O)c2ccc(N3C(=O)[C@@H]4Cc5ccccc5CN4C3=O)cc2)cc1`, for which the IC50 is 29.7 µM.

As for `Cc1ccc(Cn2nnc(-c3ccccc3Cl)n2)cc1`, the IC50 was 13.9 µM.

In the case of `CCCN1C=NS(=O)(=O)c2cc(C(=O)Nc3ccc(OC)c(Cl)c3)ccc21`, the IC50 was 35.2 µM.

Consider `C=C1CCC2[C@](C)(CCC[C@]2(C)C(=O)OC)[C@H]1CCc1ccoc1C[N+](C)(C)Cc1ccccc1` (stereo not given in full), for which the IC50 was 20.1 µM.

For the compound `O=C(NCC(c1cccnc1)N1CCc2ccccc2C1)C(=O)Nc1ccc2c(c1)OCO2` (stereo not given), the IC50 is 28.8 µM.

As to `CCc1ccccc1NC(=O)COc1ccccc1-c1nnc(-c2ccccc2)o1`, the half-inhibitory concentration (IC50) is 23.5 µM.

Take `Cn1cc(-c2noc(Cc3cccc(C(F)(F)F)c3)n2)ccc1=O`: the IC50 was 12.2 µM.

In the case of `Cc1ccc2nc(NC(=O)CSc3nnc(-c4ccncc4)n3C3CC3)sc2c1`, the IC50 is 4.17 µM.

As for `N#Cc1ccc(NC(=O)Nc2cccn(Cc3ccccc3F)c2=O)cc1`, the IC50 was 0.235 µM.

For `CC(=O)c1cccc(NC(=O)c2ccc(-c3csc(C)n3)cc2)c1`, the IC50 was 3.13 µM.

With `O=C(Cn1c(=O)n(Cc2ccc(F)cc2)c(=O)c2ncccc21)Nc1ccccc1`, the half-inhibitory concentration (IC50) was 29.5 µM.

Consider `CC(=O)c1cccc(NC(=O)c2ccc3[nH]c4c(c3c2)CC(C)CC4)c1` (stereo not given), for which the IC50 was > 50 µM (inactive).

Turning to `Cc1ccc(NC(=O)/C=C/c2cccc(C(F)(F)F)c2)c(O)c1`, the half-maximal inhibitory concentration (IC50) is 16.2 µM.

On to `Fc1ccc(-c2noc(-c3nnc(NCc4cccnc4)c4ccccc34)n2)cc1`, for which the IC50 was 2.97 µM.

With `O=C(Cn1c(=O)c2sccc2n(Cc2ccc([N+](=O)[O-])cc2)c1=O)NCCc1ccccc1`, the IC50 is 19.5 µM.

`Cc1ccc(NC(=O)Cc2nnc3cc(-c4nc(C)no4)ccn23)cc1`: the IC50 is 5.02 µM.

`O=C(c1ccc2occc2c1)N1CCC(S(=O)(=O)c2ccc(-c3ccco3)cc2)CC1`: the IC50 was > 50 µM (inactive).

For `O=C1N[C@@H](Cc2ccccc2)C(=O)N2[C@H]3Nc4ccccc4[C@@]3([C@]34C[C@H]5C(=O)N[C@@H](Cc6ccccc6)C(=O)N5[C@H]3Nc3ccccc34)C[C@@H]12`, the IC50 is 29.4 µM.

Take `O=C(Cn1c(=O)n(CC(=O)NC2CCCC2)c(=O)c2ccccc21)Nc1cc(Cl)ccc1Cl`: the IC50 was 4.52 µM.

For the compound `Cc1ccc2c(c1)c(=O)c(C(=O)c1ccc(F)cc1)cn2CC(=O)Nc1ccc2c(c1)OCCO2`, the IC50 was 35.9 µM.

On to `Cc1cccc(C(=O)Nc2ccccc2Sc2nc3c(c(=O)n(C)c(=O)n3C)n2C)c1`, for which the IC50 is 42.6 µM.

Regarding `O=C(Cn1c(=O)n(-c2ccccc2)c(=O)c2ccc(C(=O)NCc3ccc4c(c3)OCO4)cc21)NCCC1=CCCCC1`, the IC50 is 15.7 µM.

For the compound `COCCCn1c(C(=O)NCCc2ccccc2)cc2c(=O)n3cccc(C)c3nc21`, the IC50 was 42.1 µM.

With `COc1ccccc1NC(=O)Cn1cc(C(=O)c2ccc(C)cc2)c(=O)c2cc(Cl)ccc21`, the IC50 is 11.3 µM.

Take `CCOc1cc(C2C3=C(CC(C)(C)CC3=O)Nc3onc(C)c32)ccc1O` (stereo not given): the 50% inhibitory concentration (IC50) was 37.5 µM.

For `O=C(NCCc1ccco1)c1ccc(N2CCOc3ccccc32)s1`, the IC50 was 22.4 µM.

As for `Cc1cccc(-n2nc(C)c3c2NC(=O)CC3C(=O)c2cc3ccccc3o2)c1` (stereo not given), the concentration for half-maximal inhibition (IC50) was 25.3 µM.

`O=c1c(Nc2cccc(F)c2)nc2ccncc2n1Cc1ccccc1`: the IC50 is 26 µM.

For `COc1cccc(NC(=O)CSc2nnc(-c3cc4cccc(OC)c4o3)n2C)c1`, the IC50 is 14.6 µM.

As to `Cc1ccc(OCCn2c(=N)n(C(C)C)c3ccccc32)cc1`, the IC50 was 2.13 µM.

Regarding `O=C(/C=C/C=C/C=C/C1CCCCC1)NC1=C[C@@](O)(/C=C/C=C/C=C/C(=O)NC2=C(O)CCC2=O)[C@@H]2O[C@@H]2C1=O`, the IC50 was 3.62 µM.

`O=C(Cn1nc2c3c4c(sc3ncn2c1=O)CCCCC4)Nc1ccc(Cl)cc1F`: the IC50 was 1.83 µM.

Turning to `FC(F)(F)c1cccc(Nc2nnc(-c3cccnc3)s2)c1`, the half-inhibitory concentration (IC50) was 12.1 µM.

For the compound `CN(C)S(=O)(=O)N1CCCC2(C1)Nc1cccnc1NC2=NC1CCCC1` (stereo not given), the IC50 was > 50 µM (inactive).

Regarding `Nc1c(C(=O)NCCc2ccccc2)nnn1-c1ccc(F)cc1`, the IC50 was 42.5 µM.

As to `CN1C(=O)COc2ccc(NC(=O)c3cc(-c4ccccc4)on3)cc21`, the IC50 was > 50 µM (inactive).

As to `O=C(Nc1ccc2c(c1)OCCO2)c1cccc2nc3ccccc3nc12`, the IC50 was 1.99 µM.

As for `COc1ccc(Cl)cc1NC(=O)Cn1c(=O)cc(C)c2c(C)nn(-c3ccccc3)c21`, the IC50 is 5.44 µM.

For the compound `COc1ccccc1CNC(=O)CCCCn1c(=O)c2ccccc2n(Cc2ccccc2C#N)c1=O`, the half-maximal inhibitory concentration (IC50) is 13 µM.

Consider `O=C1C/C(=C\c2cccc(Cl)c2)Cc2ccccc21`, for which the IC50 is 13 µM.

With `CCCC(=O)c1c[nH]c(C(=O)NCc2ccc(F)cc2)c1`, the half-inhibitory concentration (IC50) is 18.7 µM.

`COc1cccc(CN2CCc3nc4nc(C)ccc4cc3C2)c1`: the IC50 was > 50 µM (inactive).

As to `COCCCNC(=O)Cn1c(=O)n(Cc2ccc(C(=O)NCc3ccccc3OC)cc2)c(=O)c2ccccc21`, the IC50 is > 50 µM (inactive).

As to `Cc1ccc2nc(-c3cccc(-c4nc5ccc(C)cc5[nH]4)n3)[nH]c2c1`, the IC50 was > 50 µM (inactive).

On to `COc1ccc(-c2nc(-c3nnn(Cc4ccc(F)cc4)c3C)no2)c(OC)c1`, for which the IC50 is 5.4 µM.

Take `O=C(CN1C(=O)COc2ccc(Cl)cc21)Nc1cccc2ncccc12`: the IC50 was > 50 µM (inactive).

As for `Cc1cccc(C(=O)Nc2cccc(SC(C(=O)Nc3ccc(O)c(C(=O)O)c3)c3ccccc3)c2)c1` (stereo not given), the IC50 was 3.72 µM.

For `Cn1c2ccccc2c(=O)c2c(=O)n(Cc3ccccc3)c(-c3ccccc3F)nc21`, the IC50 was 0.108 µM.

Consider `O=C(Cn1c(=O)n(Cc2ccco2)c(=O)c2ccc(C(=O)NC3CCCC3)cc21)NCc1ccco1`, for which the half-inhibitory concentration (IC50) was 27.5 µM.

As for `Cc1ccc(C(=O)Nc2cc3c4c(c2)CC(=O)N4CCC3)cc1C`, the IC50 was 6.26 µM.

Consider `Cc1ccc(C)c(Cn2nnc3c(=O)[nH]c(C4CCN(S(=O)(=O)c5ccc(S(=O)(=O)NC6CC6)cc5)CC4)nc32)c1`, for which the IC50 was 9.09 µM.

With `O=C(Cn1ccc2ccc(N3CCOCC3)nc21)NCc1ccccc1F`, the IC50 was > 50 µM (inactive).

With `Cc1ccccc1Cn1cc(SCC(=O)Nc2ccc3c(c2)OCCO3)c2ccccc21`, the IC50 was 4.81 µM.

For `CC(C)Cc1nc2oc3c(N(C)CCO)ncnc3c2c2c1CCC2`, the IC50 was > 50 µM (inactive).

In the case of `O=C(Nc1ccc2c(c1)OCO2)c1cc(-c2cccnc2)n(-c2ccccc2)n1`, the half-maximal inhibitory concentration (IC50) was 8.27 µM.

`CC(=O)N1CCOc2cc(S(=O)(=O)N3CCCC3c3cc(C)no3)ccc21` (stereo not given): the IC50 was 22.9 µM.

`Cc1cccc(C(=O)N2CCN3Cc4ccccc4N(C)CC3C2)c1` (stereo not given): the IC50 is > 50 µM (inactive).

Turning to `O=C(COc1cccc(C(=O)NCc2ccccc2)c1)Nc1ccc(Oc2ccccc2)cc1`, the half-maximal inhibitory concentration (IC50) is 27.9 µM.

On to `COc1ccc(C(=O)CCN2CCOCC2)cc1[N+](=O)[O-]`, for which the IC50 was > 50 µM (inactive).

On to `O=C(NCc1cccnc1)c1cnn2c(C(F)(F)F)cc(-c3ccccc3)nc12`, for which the IC50 is > 50 µM (inactive).

For the compound `CCOc1ccc2cc3c(nc2c1)OC(=O)N(Cc1ccc(C)o1)C3`, the half-maximal inhibitory concentration (IC50) was 2.93 µM.

Consider `COc1ccc(Cl)cc1-n1nnc(C(=O)N2CCc3ccccc3C2)c1C`, for which the IC50 was > 50 µM (inactive).

Consider `CCOC(=O)c1sc2nc(CC(=O)OC)nc(NCc3ccco3)c2c1C`, for which the IC50 was > 50 µM (inactive).

On to `COc1cc(NC(=O)c2cc(-c3ccncc3)n(-c3ccc(F)cc3)n2)cc(OC)c1`, for which the IC50 is 12 µM.

In the case of `O=C(/C=C/c1ccc2c(c1)OCO2)Nc1nc2c(s1)COCC2`, the 50% inhibitory concentration (IC50) was 27.5 µM.

In the case of `COc1cccc(Cn2nc3n(CC(C)C)c(=O)c4ccc(C(=O)NCC(C)C)cc4n3c2=O)c1`, the IC50 is 6.72 µM.

As to `Cc1cc(NC(=O)c2cc(-c3cccnc3)n[nH]2)ccc1Br`, the IC50 is 1.03 µM.

`COc1cc2cc3c(c(O)c2c(O)c1-c1c(OC)cc2cc4c(c(O)c2c1O)C(=O)OC1CC(C)OC41)C(=O)OC1CC(C)OC31` (stereo not given): the IC50 was > 50 µM (inactive).

As to `Cc1ccc(CNC(=O)Cn2c(=O)n(-c3ccccc3)c3ncccc32)cc1`, the IC50 was > 50 µM (inactive).

Regarding `O=[N+]([O-])c1cccc(CSc2nnc(/C=C/c3ccccc3)o2)c1`, the IC50 was > 50 µM (inactive).

As for `CCOC(=O)c1ccc(-n2c(=O)c(C#N)cc3c(=O)n4ccccc4nc32)cc1`, the IC50 is > 50 µM (inactive).

Turning to `Cc1c(C(=O)Nc2ccc(-c3nnc4n3CCCCC4)cc2)oc2c1ccc1ccccc12`, the IC50 is 4.09 µM.

Take `N#Cc1ccccc1Cn1c(=O)n(Cc2ccco2)c(=O)c2ccccc21`: the IC50 is 7.54 µM.

`COc1cccc2c1OCC(NS(=O)(=O)c1cc(C)ccc1C)C2` (stereo not given): the IC50 was > 50 µM (inactive).

On to `O=C(c1ccsc1)N1CCC2(C1)Nc1cccnc1NC2=NC1CCCC1` (stereo not given), for which the IC50 was > 50 µM (inactive).

The values above are taken from PubChem BioAssay AID1645866 (Buhrlage Lab, Dana-Farber Cancer Institute and Novartis …, 2021).
